Laboratory results: patent US8765746B2 (Millennium Pharmaceuticals, Inc., priority 2010, dated 2014)

Assays:
PI3Kalpha = molecular target: T1, PI3Kalpha (Homo sapiens, UniProt P42336); assay: Human PI3Kα enzyme assay (HTRF); format: biochemical; settings: for inhibition at 1.11 µM: read-out: PI3Kalpha % inh; for PI3Kalpha % inh: at 1.11 μM
T1 construct: His (N); host or cells: SF9 insect cells (baculovirus)
Excerpt: (§1) The catalytic subunits of PI3Ks are cloned into either pDEST8(p110 alpha) or pDEST10(p110beta, p110delta, and p110gamma) as N-terminal His tagged fusion proteins using the Gateway system (Invitrogen, catalog#11804-010 for pDEST8 and 11806-015 for pDEST10). The sequences are verified before recombinant protein expression using the Baculovirus Expression System with Gateway® Technology. The accession numbers for the subunits are as follows:
(§2) The regulatory subunits of PI3Ks are cloned into pDEST8 as un-tagged protein using the Gateway system (Catalog#11804-010). The sequences are verified before recombinant protein expression using the Baculovirus Expression System with Gateway® Technology. The accession numbers for the subunits are as follows:
(§3) For expression of the p110 complexes, the p85 (MOI of 4) is co-infected with p110 alpha, beta, and delta respectively (1MOI) in SF9 cells and harvested at 60 hours post co-infection. P110 gamma was infected at 1 MOI and harvested at 60 hours post infection.
(§4) For purification, PI3Ks are purified by Ni-NTA Agarose (Qiagen #30250) followed by Mono Q 10/100 GL (Ge Healthcare #17-5167-01). VPS34 is purified by Glutathione Sepharose 4 Fast Flow (GE Healthcare #17-5132-03) followed by HiTrap Q (GE Healthcare #17-1153-01).
1) Human PI3Kα enzyme assay method
(§5) 0.5 uL compounds in DMSO are added to wells of a 384 well microtitre plate (Corning 3575). At room temperature: 10 ul PI3K reaction buffer (50 mM Hepes, 5 mM DTT, 150 mM NaCl, 10 mM beta-glycerophosphate, 10 mM MgCl2, 0.25 mM sodium cholate and 0.001% CHAPS, pH 7.00) containing ATP (25 uM, Promega) is added followed immediately by 10 ul PI3K reaction buffer containing di-C8 PI(4,5)P2 (3.5 uM, CellSignals) and PI3Kalpha (0.4875 nM, Millennium Protein Sciences Group) and the mixture is incubated with shaking at room temperature for 30 minutes. Then 5 ul PI3K stop mix (50 mM Hepes, 5 mM DTT, 150 mM NaCl, 0.01% Tween-20, 15 mM EDTA and 25 nM biotin-PI(3,4,5)P3 (Echelon) is added to quench the reaction followed immediately by addition of 5 ul HTRF detection mix (50 mM Hepes, 5 mM DTT, 150 mM NaCl, 0.01% Tween-20, 40 mM KF, 10 nM GST:GRP-1 PH domain (Millennium Protein Sciences Group), 15 nM Streptavidin-XL (CisBio) and 0.375 nM anti-GST Eu++ antibody (CisBio) at pH 7.00). The plates are then incubated for 1 hour at room temperature with shaking and then read on a BMG PheraStar Plus reader.

PI3Kbeta = molecular target: T2, PI3Kbeta (Homo sapiens, UniProt P42338); assay: Human PI3K beta enzyme assay (HTRF, as for PI3K alpha); format: biochemical; settings: for inhibition at 1.11 µM: read-out: PI3Kbeta % inh; for inhibition at 1.11 µM / PI3Kbeta % inh: at 1.11 μM; for IC50: read-out: IC50 (inhibit PI3Kbeta)
T2 construct: His (N); host or cells: SF9 insect cells (baculovirus)
Excerpt: as §1, §2, §3, §4, §5
2) Human PI3K beta, delta and gamma isoforms are tested using the procedure described for PI3K alpha above but with the following changes: PI3K beta (5.25 nM), PI3K delta (0.75 nM) and PI3K gamma (5 nM). All isoforms supplied by Millennium Protein Science Group.

T2 sequence (P42338 whole entry): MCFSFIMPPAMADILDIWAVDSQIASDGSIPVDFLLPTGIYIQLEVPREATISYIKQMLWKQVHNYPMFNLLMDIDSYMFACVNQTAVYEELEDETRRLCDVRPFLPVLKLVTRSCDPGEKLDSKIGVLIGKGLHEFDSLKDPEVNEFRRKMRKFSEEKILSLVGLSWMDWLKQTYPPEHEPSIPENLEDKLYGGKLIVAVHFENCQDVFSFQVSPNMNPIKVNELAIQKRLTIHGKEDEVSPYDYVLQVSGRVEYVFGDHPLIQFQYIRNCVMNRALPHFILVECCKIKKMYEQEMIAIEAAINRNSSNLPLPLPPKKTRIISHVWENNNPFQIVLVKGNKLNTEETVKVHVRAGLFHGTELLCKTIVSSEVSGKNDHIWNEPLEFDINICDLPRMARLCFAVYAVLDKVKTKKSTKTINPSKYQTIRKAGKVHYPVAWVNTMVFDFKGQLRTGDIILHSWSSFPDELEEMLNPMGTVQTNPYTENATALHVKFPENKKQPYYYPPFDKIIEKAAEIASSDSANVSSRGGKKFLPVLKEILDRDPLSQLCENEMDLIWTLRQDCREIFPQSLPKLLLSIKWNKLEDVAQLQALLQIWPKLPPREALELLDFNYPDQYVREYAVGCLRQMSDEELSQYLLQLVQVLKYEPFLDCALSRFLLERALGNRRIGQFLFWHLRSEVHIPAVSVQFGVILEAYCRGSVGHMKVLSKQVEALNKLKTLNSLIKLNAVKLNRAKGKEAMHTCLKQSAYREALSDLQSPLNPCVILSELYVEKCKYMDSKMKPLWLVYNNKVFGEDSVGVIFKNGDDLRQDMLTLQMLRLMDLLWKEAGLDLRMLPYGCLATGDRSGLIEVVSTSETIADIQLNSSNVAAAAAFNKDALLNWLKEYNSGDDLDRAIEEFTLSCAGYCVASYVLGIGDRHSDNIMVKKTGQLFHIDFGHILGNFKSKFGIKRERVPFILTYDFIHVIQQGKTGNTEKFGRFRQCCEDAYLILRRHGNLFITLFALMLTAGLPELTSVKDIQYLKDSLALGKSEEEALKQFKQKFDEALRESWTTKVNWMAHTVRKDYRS
T2 sequence (P27986 whole entry partner): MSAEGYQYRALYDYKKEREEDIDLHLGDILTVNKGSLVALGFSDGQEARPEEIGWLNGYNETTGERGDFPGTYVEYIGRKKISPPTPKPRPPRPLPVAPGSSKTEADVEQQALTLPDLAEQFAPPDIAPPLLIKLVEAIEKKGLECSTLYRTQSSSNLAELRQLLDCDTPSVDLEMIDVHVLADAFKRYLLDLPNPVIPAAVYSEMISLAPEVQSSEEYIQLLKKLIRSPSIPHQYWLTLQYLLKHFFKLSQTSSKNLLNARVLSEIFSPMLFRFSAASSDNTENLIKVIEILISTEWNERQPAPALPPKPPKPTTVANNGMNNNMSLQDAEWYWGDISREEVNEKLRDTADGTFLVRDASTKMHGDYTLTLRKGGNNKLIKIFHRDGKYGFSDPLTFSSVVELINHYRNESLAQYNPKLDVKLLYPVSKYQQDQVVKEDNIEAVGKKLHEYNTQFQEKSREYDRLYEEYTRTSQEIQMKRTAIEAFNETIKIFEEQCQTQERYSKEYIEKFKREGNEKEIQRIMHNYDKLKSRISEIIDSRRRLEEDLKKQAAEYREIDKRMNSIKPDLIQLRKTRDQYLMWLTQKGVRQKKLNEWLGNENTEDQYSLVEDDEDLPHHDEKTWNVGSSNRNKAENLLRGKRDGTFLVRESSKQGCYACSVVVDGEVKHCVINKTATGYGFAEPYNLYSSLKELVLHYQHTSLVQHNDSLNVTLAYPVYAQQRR
T1 sequence (P42336 whole entry): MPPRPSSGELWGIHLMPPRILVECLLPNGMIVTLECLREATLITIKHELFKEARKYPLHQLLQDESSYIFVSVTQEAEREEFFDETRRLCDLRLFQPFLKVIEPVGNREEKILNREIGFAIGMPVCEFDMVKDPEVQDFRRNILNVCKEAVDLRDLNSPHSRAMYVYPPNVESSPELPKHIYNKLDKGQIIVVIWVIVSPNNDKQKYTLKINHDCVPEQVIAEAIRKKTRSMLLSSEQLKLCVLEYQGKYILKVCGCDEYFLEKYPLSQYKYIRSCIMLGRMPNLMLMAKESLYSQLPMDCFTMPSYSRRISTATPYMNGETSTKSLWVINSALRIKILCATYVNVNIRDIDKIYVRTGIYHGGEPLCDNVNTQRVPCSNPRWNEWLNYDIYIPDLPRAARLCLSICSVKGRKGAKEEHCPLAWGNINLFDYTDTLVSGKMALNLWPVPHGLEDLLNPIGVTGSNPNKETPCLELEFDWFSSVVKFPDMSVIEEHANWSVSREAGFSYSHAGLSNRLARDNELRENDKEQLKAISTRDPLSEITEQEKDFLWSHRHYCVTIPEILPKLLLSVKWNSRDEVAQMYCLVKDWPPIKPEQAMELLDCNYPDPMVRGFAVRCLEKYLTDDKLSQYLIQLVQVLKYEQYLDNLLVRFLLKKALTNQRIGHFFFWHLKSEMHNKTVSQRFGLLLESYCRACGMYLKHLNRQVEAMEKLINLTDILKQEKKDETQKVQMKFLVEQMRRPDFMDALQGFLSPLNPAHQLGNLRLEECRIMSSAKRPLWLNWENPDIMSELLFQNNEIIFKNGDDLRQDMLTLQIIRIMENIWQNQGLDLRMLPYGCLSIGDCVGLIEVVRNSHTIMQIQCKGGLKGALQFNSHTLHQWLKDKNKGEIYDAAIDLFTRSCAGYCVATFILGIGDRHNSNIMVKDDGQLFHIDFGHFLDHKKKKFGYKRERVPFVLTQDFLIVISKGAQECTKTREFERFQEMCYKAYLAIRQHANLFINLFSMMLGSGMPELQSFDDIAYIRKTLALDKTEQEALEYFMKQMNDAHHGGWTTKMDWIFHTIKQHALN
T1 sequence (P27986 whole entry partner): as the sequence (P27986 whole entry partner) above

Row | SMILES | inhibition at 1.11 µM (PI3Kalpha) [%] | inhibition at 1.11 µM (PI3Kbeta) [%] | PI3Kalpha % inh (PI3Kalpha) [%] | PI3Kbeta % inh (PI3Kbeta) [%] | IC50 (PI3Kbeta) [nM]
1 | COC(=O)[C@@H]1NC(=O)c2sc(N3CCOCC3)cc2[C@H]1c1ccc(Cl)c(Cl)c1 (relative stereo) [Compound 127, methyl rel-(4R,5R)-4-(3,4-dichlorophenyl)-2-(morpholin-4-yl)-7-oxo-4,5,6,7-tetrahydrothieno[2,3-c]pyridine-5-carboxylate] | 31.4 | 75.8 | – | – | –
2 | CNC(=O)[C@@H]1NC(=O)c2sc(-c3ccnc(C)c3)cc2[C@H]1c1ccc(Cl)cc1 (relative stereo) [Compound 138, rel-(4R,5R)-4-(4-chlorophenyl)-N-methyl-2-(2-methylpyridin-4-yl)-7-oxo-4,5,6,7-tetrahydrothieno[2,3-c]pyridine-5-carboxamide] | 7.29 | 64.6 | – | – | –
3 | O=C1N[C@@H](C(=O)O)[C@H](c2ccc(Cl)c(Cl)c2)c2cc(N3CCOCC3)sc21 (relative stereo) [Compound 142, rel-(4R,5R)-4-(3,4-dichlorophenyl)-2-(morpholin-4-yl)-7-oxo-4,5,6,7-tetrahydrothieno[2,3-c]pyridine-5-carboxylic acid] | 16.7 | 72 | – | – | –
4 | O=C1CCC(c2ccc(Cl)cc2)c2cc(-c3ccncc3)sc21 (single isomer, unassigned) [Compound 4, 4-(4-chlorophenyl)-2-pyridin-4-yl-5,6-dihydro-1-benzothiophen-7(4H)-one] | – | – | −0.100 | 14.400 | > 1000
5 | O=C1NCC(c2ccc(Cl)cc2)c2c1sc(N1CCOCC1)c2C#Cc1ccccc1 (single isomer, unassigned) [Compound 137, 4-(4-chlorophenyl)-2-(morpholin-4-yl)-3-(phenylethynyl)-5,6-dihydrothieno[2,3-c]pyridin-7(4H)-one] | 16.1 | 80.8 | – | – | –
6 | C=Cc1c(N2CCOCC2)sc2c1C(c1ccc(Cl)cc1)CNC2=O (single isomer, unassigned) [Compound 143, 4-(4-chlorophenyl)-2-(morpholin-4-yl)-3-vinyl-5,6-dihydrothieno[2,3-c]pyridin-7(4H)-one] | 10 | 82.5 | – | – | –
7 | O=C1NCC(c2ccc(Cl)cc2)c2c1sc(N1CCOCC1)c2CO (single isomer, unassigned) [Compound 178, 4-(4-chlorophenyl)-3-(hydroxymethyl)-2-(morpholin-4-yl)-5,6-dihydrothieno[2,3-c]pyridin-7(4H)-one] | 4.71 | 40.2 | – | – | –
8 | O=C1NCC(c2ccc(Cl)cc2)c2c1sc(N1CCOCC1)c2Br (single isomer, unassigned) [Compound 181, 3-bromo-4-(4-chlorophenyl)-2-(morpholin-4-yl)-5,6-dihydrothieno[2,3-c]pyridin-7(4H)-one] | 8.59 | 69.5 | – | – | –
9 | O=Cc1c(N2CCOCC2)sc2c1C(c1ccc(Cl)cc1)CNC2=O (single isomer, unassigned) [Compound 193, 4-(4-chlorophenyl)-2-(morpholin-4-yl)-7-oxo-4,5,6,7-tetrahydrothieno[2,3-c]pyridine-3-carbaldehyde] | 11.1 | 79.1 | – | – | –
10 | CC1(C)CC(=O)c2sc(-c3ccncc3)cc2C1(O)c1ccc(Cl)cc1 (stereo not shown) [Compound 5, 4-(4-chlorophenyl)-4-hydroxy-5,5-dimethyl-2-pyridin-4-yl-5,6-dihydro-1-benzothiophen-7(4H)-one] | -3.8 | 32.8 | – | – | > 1000
11 | O=C1OC2(CCC(=O)c3sc(-c4ccncc4)cc32)c2ccc(Cl)cc21 (stereo not shown) [Compound 14, 5-chloro-2′-pyridin-4-yl-5′,6′-dihydro-3H,7′H-spiro[2-benzofuran-1,4′-[1]benzothiophene]-3,7′-dione] | 8.7 | 31.9 | – | – | > 1000
12 | CC(=O)Nc1cc(-c2cc3c(s2)C(=O)CC3c2ccc(Cl)cc2)ccn1 (stereo not shown) [Compound 16, N-(4-(4-(4-chlorophenyl)-6-oxo-5,6-dihydro-4H-cyclopenta[b]thiophen-2-yl)pyridin-2-yl)acetamide] | 24.5 | 54.5 | – | – | 100 to 1000
13 | N#Cc1c(N2CCOCC2)sc2c1C(c1ccc(Cl)c(Cl)c1)CCNC2=O (stereo not shown) [Compound 116] | – | – | 36.43 | 66.61 | –
14 | O=C1N[C@@H](CO)CC(c2ccc3ccccc3c2)c2nc(N3CCOCC3)sc21 (stereo partly shown) [Compound 120] | – | – | 12.90 | 44.05 | –
15 | CNC(=O)[C@@H]1NC(=O)c2sc(C3=CCOCC3)cc2[C@H]1c1ccc(Cl)cc1 [Compound 121] | – | – | 40.77 | 104.98 | –
16 | O=C1NCC(c2ccc(Cl)cc2)c2c1sc(N1CCOCC1)c2C#Cc1cccnc1 (stereo not shown) [Compound 122] | 97.8 | 128 | – | – | –
17 | CN(C)CC#Cc1c(N2CCOCC2)sc2c1C(c1ccc(Cl)cc1)CNC2=O (stereo not shown) [Compound 130] | 58.1 | 116 | – | – | –
18 | O=C1NCCC(c2ccc3ccccc3c2)c2nc(N3CCOCC3)sc21 (stereo not shown) [Compound 131] | – | – | 9.87 | 85.03 | –
19 | CNC(=O)[C@@H]1NC(=O)c2sc(N3CCOCC3)cc2[C@H]1c1ccc(Cl)c(Cl)c1 [Compound 132] | 54 | 115 | – | – | –
20 | N#Cc1c(N2CCOCC2)sc2c1C(c1ccc3ccccc3c1)CNC2=O (stereo not shown) [Compound 135, 2-(morpholin-4-yl)-4-(2-naphthyl)-7-oxo-4,5,6,7-tetrahydrothieno[2,3-c]pyridine-3-carbonitrile] | 89.8 | 121 | – | – | –
21 | COC(=O)C1C(=O)c2sc(N3CCOCC3)cc2C1c1ccc(Cl)c(Cl)c1 (stereo not shown) [Compound 139, methyl 4-(3,4-dichlorophenyl)-2-(morpholin-4-yl)-6-oxo-5,6-dihydro-4H-cyclopenta[b]thiophene-5-carboxylate] | 14.4 | 95.6 | – | – | –
22 | C=CCC1(C(=O)OC)NC(=O)c2sc(N3CCOCC3)cc2C1c1ccc(Cl)c(Cl)c1 (stereo not shown) [Compound 154, methyl 5-allyl-4-(3,4-dichlorophenyl)-2-(morpholin-4-yl)-7-oxo-4,5,6,7-tetrahydrothieno[2,3-c]pyridine-5-carboxylate] | 10.9 | 75.5 | – | – | –
23 | CNC(=O)[C@H]1NC(=O)c2sc(N3CCOCC3)cc2[C@H]1c1ccc(Cl)cc1 [Compound 157] | 30.1 | 111 | – | – | –
24 | N#Cc1c(N2CCOCC2)sc2c1C(c1ccc(Cl)c(Cl)c1)CNC2=O (stereo not shown) [Compound 159] | 67.2 | 118 | – | – | –
25 | CNC(=O)[C@@H]1NC(=O)c2sc(-c3ccncc3)cc2[C@H]1c1ccc(Cl)cc1 [Compound 160] | – | – | 11.18 | 76.80 | –
26 | O=C1NCCC(c2ccc3ccncc3c2)c2nc(N3CCOCC3)sc21 (stereo not shown) [Compound 165] | 13.3 | 109 | – | – | –
27 | C=CCN1C(=O)c2sc(N3CCOCC3)cc2C(c2ccc(Cl)c(Cl)c2)C1C(=O)OC (stereo not shown) [Compound 166, methyl 6-allyl-4-(3,4-dichlorophenyl)-2-(morpholin-4-yl)-7-oxo-4,5,6,7-tetrahydrothieno[2,3-c]pyridine-5-carboxylate] | 7.59 | 69.2 | – | – | –
28 | NC(=O)c1cc(C2CCNC(=O)c3sc(N4CCOCC4)nc32)ccc1Cl (stereo not shown) [Compound 167] | 5.27 | 81.2 | – | – | –
29 | CNC(=O)c1[nH]c(=O)c2sc(N3CCOCC3)cc2c1-c1ccc(Cl)cc1 [Compound 168] | 74.5 | 117 | – | – | –
30 | O=C1OC2(CCNC(=O)c3sc(N4CCOCC4)nc32)c2ccc(Cl)cc21 (stereo not shown) [Compound 172, 5-chloro-2′-(morpholin-4-yl)-6′,7′-dihydro-3H-spiro[2-benzofuran-1,8′-[1,3]thiazolo[5,4-c]azepine]-3,4′(5′H)-dione] | 16.1 | 49.3 | – | – | –
